{
  "source": "patent US11572347B2",
  "about": "(priority 2017, dated 2023)",
  "key": {"PDE4": {"test_system": "PDE4", "procedure": "HEK293 cell culture and transfection: HEK293 cells were cultured in DMEM (Gibco life technologies) containing 10% FBS, 100 units/ml penicillin-streptomycin, and 2 mM L-glutamine. Cell transfections were performed with the PIE Transfection reagent (Qiagen) according to manufacturer's instructions.\nForster Resonance Energy Transfer (FRET):Measurements to track PKA activity. […] Images were acquired using a Zeiss AXIO inverted fluorescence microscope (Carl Zeiss micrscopy, LLC, Thomwood, N.Y.) with a 40× oil-emersion objective lens and a charge-coupled device camera controlled by Metafluor software (Molecular Devices, Sunnyvale, Calif.). […] Images were subjected to background subtraction, and were acquired every 30 seconds with exposure time of 200 ms. The donor/acceptor FRET ratio was calculated and normalized to the ratio value of baseline.\nStatistics: Statistical analysis was performed using GraphPad Prism 6 software (La Jolla, Calif.). Results are shown as mean±SEM and were analyzed by one way ANOVA with post hoc Bonferroni's multiple compression test."}, "in vivo": {"experiment": "in vivo", "conditions": "rat", "procedure": "All the animal experiments were performed according to the protocols approved by the Animal Use and Care Committee of University of California-Davis. Male Sprague-Dawley rats (n=4, 8 week old, 250-300 g) were used in the pharmacokinetic study of sEH/PDE4 dual inhibitors. […] Inhibitor was dissolved in 100% polyethylene glycol 300 to form a clear solution. […] Each blood sample was immediately transferred to a tube containing […] of water and mixed by Vortex for 1 min, all samples were stored at −80° C. until analysis."}, "[1]": {"test_system": "inflammatory pain (rat TWL-LPS model)", "conditions": "for TWL threshold time course (analgesic effect): over 4 h", "procedure": "Control animals received a 50 μl saline intraplantar sham injection in the right back paw.\nStudent t-test was performed in Microsoft Excel with a significance of P<0.05. Results are shown as mean±SD."}, "[2]": {"conditions": "over the following days post treatment"}, "[3]": {"conditions": "male, Sprague-Dawley, in vivo, 0.3 mg/kg"}, "[4]": {"conditions": "male, Sprague-Dawley, po, 3 mg/kg"}, "[5]": {"conditions": "male, Sprague-Dawley, po, 30 mg/kg"}, "[6]": {"conditions": "male, Sprague-Dawley, po, 100 mg/kg"}, "[7]": {"conditions": "rat TWL-LPS model, 1 mg/kg oral, 0.5 h"}, "[8]": {"conditions": "rat TWL-LPS model, 3 mg/kg oral, 0.5 h"}},
  "note": "Read-outs that look alike come from different tables or passages of the source.",
  "data": [
    {"compound": "COc1ccc(CNC(=O)C2CCNCC2)c(C(F)(F)F)c1", "note": "[Compound 22, N-(4-Methoxy-2-(trifluoromethyl)benzyl)piperidine-4-carboxamide]", "values": [
      {"measurement": "% cAMP increase rel. to Rolipram @ 1 μM", "setting": "PDE4", "result": "higher cAMP increase than Rolipram"},
      {"measurement": "Percentage change", "setting": "PDE4", "result": 138, "unit": "%"}
    ]},
    {"compound": "COc1ccc(CNC(=O)c2cccc(OC3CCCC3)c2)c(C(F)(F)F)c1", "note": "[Compound 19, 3-(Cyclopentyloxy)-N-(4-methoxy-2-(trifluoromethyl)benzyl)benzamide]", "values": [
      {"measurement": "concentration at 0 h", "setting": "in vivo; [3]", "result": 0, "unit": "nM"},
      {"measurement": "concentration at 0.5 h", "setting": "in vivo; [3]", "result": "4 ± 1.3", "unit": "nM"},
      {"measurement": "concentration at 1 h", "setting": "in vivo; [3]", "result": "2 ± 0.3", "unit": "nM"},
      {"measurement": "concentration at 2 h", "setting": "in vivo; [3]", "result": "2 ± 0.3", "unit": "nM"},
      {"measurement": "concentration at 4 h", "setting": "in vivo; [3]", "result": "2 ± 0.2", "unit": "nM"},
      {"measurement": "concentration at 8 h", "setting": "in vivo; [3]", "result": "1 ± 0.1", "unit": "nM"},
      {"measurement": "concentration at 12 h", "setting": "in vivo; [3]", "result": "1 ± 0.2", "unit": "nM"},
      {"measurement": "concentration at 24 h", "setting": "in vivo; [3]", "result": "0.3 ± 0.01", "unit": "nM"},
      {"measurement": "concentration at 48 h", "setting": "in vivo; [3]", "result": 0, "unit": "nM"},
      {"measurement": "plasma concentration reached (in words)", "setting": "in vivo; cassette 0.3 mg/kg PO", "result": "one digit nM"},
      {"measurement": "Percentage change", "setting": "PDE4", "result": 147, "unit": "%"}
    ]},
    {"compound": "COc1ccc(CNC(=O)C2CCN(C(=O)C3CC3)CC2)c(C(F)(F)F)c1", "note": "[Compound 28, 1-(cyclopropanecarbonyl)-N-(4-methoxy-2-(trifluoromethyl)benzyl)piperidine-4-carboxamide]", "values": [
      {"measurement": "% cAMP increase rel. to Rolipram @ 1 μM", "setting": "PDE4", "result": "230 ± 15", "unit": "%"}
    ]},
    {"compound": "CCC(=O)N1CCC(C(=O)NCc2ccc(OC)cc2C(F)(F)F)CC1", "note": "[Compound 23/RBH61, N-(4-methoxy-2-(trifluoromethyl)benzyl)-1-propionylpiperidine-4-carboxamide]", "values": [
      {"measurement": "concentration at 0 h", "setting": "in vivo; [3]", "result": 0, "unit": "nM"},
      {"measurement": "concentration at 1 h", "setting": "in vivo; [3]", "result": "40 ± 12", "unit": "nM"},
      {"measurement": "concentration at 2 h", "setting": "in vivo; [3]", "result": "25 ± 6", "unit": "nM"},
      {"measurement": "concentration at 8 h", "setting": "in vivo; [3]", "result": 0, "unit": "nM"},
      {"measurement": "concentration at 12 h", "setting": "in vivo; [3]", "result": 0, "unit": "nM"},
      {"measurement": "concentration at 24 h", "setting": "in vivo; [3]", "result": 0, "unit": "nM"},
      {"measurement": "concentration at 48 h", "setting": "in vivo; [3]", "result": 0, "unit": "nM"},
      {"measurement": "concentration at 0 h", "setting": "in vivo; [4]", "result": 0, "unit": "nM"},
      {"measurement": "concentration at 1 h", "setting": "in vivo; [4]", "result": "400 ± 15", "unit": "nM"},
      {"measurement": "concentration at 2 h", "setting": "in vivo; [4]", "result": "120 ± 7", "unit": "nM"},
      {"measurement": "concentration at 4 h", "setting": "in vivo; [4]", "result": 0, "unit": "nM"},
      {"measurement": "concentration at 8 h", "setting": "in vivo; [4]", "result": 0, "unit": "nM"},
      {"measurement": "concentration at 12 h", "setting": "in vivo; [4]", "result": 0, "unit": "nM"},
      {"measurement": "concentration at 24 h", "setting": "in vivo; [4]", "result": 0, "unit": "nM"},
      {"measurement": "concentration at 48 h", "setting": "in vivo; [4]", "result": 0, "unit": "nM"},
      {"measurement": "time until compound is cleared from the blood", "setting": "in vivo; [4]", "result": 4, "unit": "h"},
      {"measurement": "concentration at 0 h", "setting": "in vivo; [5]", "result": 0, "unit": "nM"},
      {"measurement": "concentration at 1 h", "setting": "in vivo; [5]", "result": 805, "unit": "nM"},
      {"measurement": "concentration at 2 h", "setting": "in vivo; [5]", "result": 527, "unit": "nM"},
      {"measurement": "concentration at 8 h", "setting": "in vivo; [5]", "result": 29, "unit": "nM"},
      {"measurement": "concentration at 12 h", "setting": "in vivo; [5]", "result": 0, "unit": "nM"},
      {"measurement": "concentration at 24 h", "setting": "in vivo; [5]", "result": 0, "unit": "nM"},
      {"measurement": "concentration at 48 h", "setting": "in vivo; [5]", "result": 0, "unit": "nM"},
      {"measurement": "concentration at 0 h", "setting": "in vivo; [6]", "result": 0, "unit": "nM"},
      {"measurement": "concentration at 1 h", "setting": "in vivo; [6]", "result": 1380, "unit": "nM"},
      {"measurement": "concentration at 2 h", "setting": "in vivo; [6]", "result": 923, "unit": "nM"},
      {"measurement": "concentration at 4 h", "setting": "in vivo; [6]", "result": 477, "unit": "nM"},
      {"measurement": "concentration at 8 h", "setting": "in vivo; [6]", "result": 254, "unit": "nM"},
      {"measurement": "concentration at 12 h", "setting": "in vivo; [6]", "result": 0, "unit": "nM"},
      {"measurement": "concentration at 24 h", "setting": "in vivo; [6]", "result": 0, "unit": "nM"},
      {"measurement": "concentration at 48 h", "setting": "in vivo; [6]", "result": 0, "unit": "nM"},
      {"measurement": "bioavailability among the cassette compounds", "setting": "in vivo; cassette 0.3 mg/kg PO", "result": "best bioavailability"},
      {"measurement": "time after which compound is cleared from plasma", "setting": "in vivo; cassette 0.3 mg/kg PO", "result": 4, "unit": "h"},
      {"measurement": "TWL threshold in naïve animals (analgesic effect)", "setting": "[1]; naïve rats, no LPS", "result": "no analgesic effect"},
      {"measurement": "TWL threshold at 0.5 h (pain relief vs LPS control)", "setting": "[1]; [7]", "result": "significant pain relief"},
      {"measurement": "TWL threshold time course (analgesic effect)", "setting": "[1]; rat TWL-LPS model, 1 mg/kg oral", "result": "pain relief"},
      {"measurement": "TWL threshold at 0.5 h (pain relief vs LPS control)", "setting": "[1]; [8]", "result": "significant pain relief"},
      {"measurement": "TWL threshold time course (analgesic effect)", "setting": "[1]; rat TWL-LPS model, 3 mg/kg oral", "result": "pain relief"},
      {"measurement": "analgesic effect compared to single target treatments and their combination", "setting": "[1]; rat TWL-LPS model, 3 mg/kg, 0.5 h", "result": "significantly higher"},
      {"measurement": "urine excretion", "setting": "[2]", "result": "increase in urine excretion"}
    ]},
    {"compound": "COc1ccc(CNC(=O)c2ccc(OC)c(OC3CCCC3)c2)c(C(F)(F)F)c1", "note": "[Compound 1, 3-(cyclopentyloxy)-4-methoxy-N-(4-methoxy-2-(trifluoromethyl)benzyl)benzamide]", "values": [
      {"measurement": "concentration at 0 h", "setting": "in vivo; [3]", "result": 0, "unit": "nM"},
      {"measurement": "concentration at 1 h", "setting": "in vivo; [3]", "result": 0, "unit": "nM"},
      {"measurement": "concentration at 2 h", "setting": "in vivo; [3]", "result": 0, "unit": "nM"},
      {"measurement": "concentration at 4 h", "setting": "in vivo; [3]", "result": 0, "unit": "nM"},
      {"measurement": "concentration at 8 h", "setting": "in vivo; [3]", "result": 0, "unit": "nM"},
      {"measurement": "concentration at 12 h", "setting": "in vivo; [3]", "result": 0, "unit": "nM"},
      {"measurement": "concentration at 24 h", "setting": "in vivo; [3]", "result": 0, "unit": "nM"},
      {"measurement": "concentration at 48 h", "setting": "in vivo; [3]", "result": 0, "unit": "nM"},
      {"measurement": "Percentage change", "setting": "PDE4", "result": 240, "unit": "%"}
    ]},
    {"compound": "TPPU [reference compound]", "values": [
      {"measurement": "TWL threshold at 0.5 h (pain relief vs LPS control)", "setting": "[1]; [7]", "result": "do not result in an equal analgesic effect"},
      {"measurement": "TWL threshold at 0.5 h (pain relief vs LPS control)", "setting": "[1]; [8]", "result": "significant pain relief"},
      {"measurement": "% cAMP increase rel. to Rolipram @ 1 μM", "setting": "PDE4", "result": "40 ± 10", "unit": "%"},
      {"measurement": "Percentage change", "setting": "PDE4", "result": 37, "unit": "%"},
      {"measurement": "mean FRET ratio change", "setting": "PDE4", "result": 1.015}
    ]},
    {"compound": "CCCC(=O)N1CCC(C(=O)NCc2ccc(OC)cc2C(F)(F)F)CC1", "note": "[Compound 24, 1-Butyryl-N-(4-methoxy-2-(trifluoromethyl)benzyl)piperidine-4-carboxamide]", "values": [
      {"measurement": "Percentage change", "setting": "PDE4", "result": 110, "unit": "%"}
    ]},
    {"compound": "COc1ccc(C2CNC(=O)C2)cc1OC1CCCC1", "note": "(stereo not drawn) [Rolipram, reference compound]", "values": [
      {"measurement": "Percentage change", "setting": "PDE4", "result": "[…]"},
      {"measurement": "IC50", "setting": "PDE4; read-out: IC50(PDE4)", "result": "[…]"}
    ]},
    {"compound": "CCN1CCC(C(=O)NCc2ccc(OC)cc2C(F)(F)F)CC1", "note": "[Compound 26, 1-ethyl-N-(4-methoxy-2-(trifluoromethyl)benzyl)piperidine-4-carboxamide]", "values": [
      {"measurement": "Percentage change", "setting": "PDE4", "result": 62, "unit": "%"}
    ]}
  ]
}
